What all share (type): biochemical
Experiment [1] deals with Butyrylcholinesterase (BuChE) (Homo sapiens, UniProt P06276). The experiment in a line: Butyrylcholinesterase inhibitory efficacy (butyrylthiocholine/DTNB absorbance assay). The note with it: compound 0-200 μM; enzyme 50 mU/ml; N.D. = Not Detected. The procedure:
(§1) Acetylcholinesterase or butyrylcholinesterase was prepared at 50 mU/ml, 50 μl was added to a 96-well plate, mixed with the aliquoted compound, and left for 10 minutes. The substrate, acetylthiocoline 0.05 mg/mL or butyrylthiocoline 0.1 mg/ml, was prepared and 50 μl was added to a 96-well plate and left for 10 minutes. Dithionitrobenzoic acid (DTNB) was prepared at 0.3 mg/ml, then 50 μl was added to a 96-well plate and left for 10 minutes.

The target in experiment [2] is T1, Monoamine oxidase B (MAO-B) (Homo sapiens, UniProt P27338).
T1 sequence (P27338 1-520): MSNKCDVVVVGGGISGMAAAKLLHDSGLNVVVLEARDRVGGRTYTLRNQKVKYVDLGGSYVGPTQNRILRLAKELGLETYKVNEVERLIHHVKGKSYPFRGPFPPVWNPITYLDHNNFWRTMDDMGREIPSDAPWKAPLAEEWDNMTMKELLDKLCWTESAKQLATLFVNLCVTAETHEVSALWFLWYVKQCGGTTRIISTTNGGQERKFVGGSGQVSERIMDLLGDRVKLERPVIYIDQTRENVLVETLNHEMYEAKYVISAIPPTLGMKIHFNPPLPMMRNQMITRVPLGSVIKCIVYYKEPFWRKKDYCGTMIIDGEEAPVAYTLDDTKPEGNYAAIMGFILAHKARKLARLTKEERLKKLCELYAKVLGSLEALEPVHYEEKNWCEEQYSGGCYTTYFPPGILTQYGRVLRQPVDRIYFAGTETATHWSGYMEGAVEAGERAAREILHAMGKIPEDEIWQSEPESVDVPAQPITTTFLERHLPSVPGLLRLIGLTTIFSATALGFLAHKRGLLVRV
The experiment in a line: Monoamine oxidase B inhibitory efficacy (kynuramine fluorescence assay). Conditions: compound 0-200 μM; enzyme 2 mU/mL; kynuramine substrate; N.D. = Not Detected. How it is done:
Samples were prepared by dilution with DMSO to give concentrations of 0, 2, 5, 10, 20, 50, 100, and 200 μM of the compound, and 5 μl was dispensed into a 96-well plate. 135 μl of potassium phosphate buffer (0.1 M, 7.4 pH) was dispensed into a 96-well plate. Monoamine oxidase B was prepared at 2 mU/mL, and 50 μl was added to the 96-well plate, mixed with the dispensed compound, and left for 20 minutes. The substrate, kynuramine solution, was prepared at 100 μM, then 10 μl was added to a 96-well plate and left for 10 min. The reaction was stopped by adding 75 μl of NaOH (2N). The enzyme activity was calculated by measuring the concentration of kynuramine degraded by the enzyme using a fluorometer under 310 nm (excitation)/380 nm (emission) conditions. For the fluorescence blank experiment, potassium phosphate buffer was added instead of monoamine oxidase B to correct the compound-induced fluorescence intensity values.

The target of experiment [3] is Acetylcholinesterase (AChE) (Homo sapiens, UniProt P22303). The experiment in a line: Acetylcholinesterase inhibitory efficacy (acetylthiocholine/DTNB absorbance assay). The procedure: as §1

Molecules are shown by their SMILES.

Butyrylcholinesterase (BuChE), sequence (P06276 29-602): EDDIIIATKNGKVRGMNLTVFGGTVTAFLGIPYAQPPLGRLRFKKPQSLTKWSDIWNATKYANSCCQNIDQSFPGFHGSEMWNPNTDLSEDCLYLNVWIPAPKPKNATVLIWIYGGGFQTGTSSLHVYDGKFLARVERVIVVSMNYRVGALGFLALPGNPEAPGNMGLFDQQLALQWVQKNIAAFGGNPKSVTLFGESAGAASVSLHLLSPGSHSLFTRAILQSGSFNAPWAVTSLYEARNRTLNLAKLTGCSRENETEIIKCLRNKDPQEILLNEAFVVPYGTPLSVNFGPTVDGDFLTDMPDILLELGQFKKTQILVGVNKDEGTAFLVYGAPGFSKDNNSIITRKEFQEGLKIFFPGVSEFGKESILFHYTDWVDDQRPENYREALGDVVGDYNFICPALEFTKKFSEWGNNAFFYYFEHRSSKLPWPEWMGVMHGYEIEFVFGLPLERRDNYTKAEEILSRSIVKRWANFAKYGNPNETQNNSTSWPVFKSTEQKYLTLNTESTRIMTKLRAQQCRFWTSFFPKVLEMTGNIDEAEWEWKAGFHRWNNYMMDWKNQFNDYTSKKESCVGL
Acetylcholinesterase (AChE), sequence (P22303 32-614, species assumed): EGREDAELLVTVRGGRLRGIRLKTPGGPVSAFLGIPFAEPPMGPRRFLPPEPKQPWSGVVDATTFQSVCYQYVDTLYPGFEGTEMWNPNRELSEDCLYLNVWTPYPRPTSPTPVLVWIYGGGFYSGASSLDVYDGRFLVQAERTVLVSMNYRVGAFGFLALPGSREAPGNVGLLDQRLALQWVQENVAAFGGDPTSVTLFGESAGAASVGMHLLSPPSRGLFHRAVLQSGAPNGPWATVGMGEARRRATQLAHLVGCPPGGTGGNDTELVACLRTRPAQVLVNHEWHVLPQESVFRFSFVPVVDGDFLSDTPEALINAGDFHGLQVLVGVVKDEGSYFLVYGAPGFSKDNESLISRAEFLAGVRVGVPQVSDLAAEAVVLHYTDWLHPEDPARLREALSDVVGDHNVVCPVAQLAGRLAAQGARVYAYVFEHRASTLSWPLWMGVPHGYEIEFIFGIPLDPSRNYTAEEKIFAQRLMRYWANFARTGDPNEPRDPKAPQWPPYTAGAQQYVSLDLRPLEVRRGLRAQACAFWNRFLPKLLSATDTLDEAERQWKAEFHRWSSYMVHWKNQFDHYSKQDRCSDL

Broadly, the IC50 is the concentration that gives 50% inhibition. High values mean a need for much substance, low ones inhibition by little substance. For `CCCCCc1cc2c(c(O)c1C(=O)NC1Cc3ccccc3C1)C=CC(C)(CCC=C(C)C)O2` (stereo not drawn) [Compound 4aa, N-(2,3-dihydro-1H-inden-2-yl)-5-hydroxy-2-methyl-2-(4-methylpent-3-en-1-yl)-7-pentyl-2H-chromene-6-carboxamide], the IC50 in experiment [1] turned out to be 164 µM; in experiment [2] it was 100 µM; in experiment [3] it was 2 µM.

Regarding `CCCCCc1cc2c(c(O)c1C(=O)N1CCN(CCO)CC1)C=CC(C)(CCC=C(C)C)O2` (stereo not drawn) [Compound 4ae, (5-hydroxy-2-methyl-2-(4-methylpent-3-en-1-yl)-7-pentyl-2H-chromen-6-yl)(4-(2-hydroxyethyl)piperazin-1-yl)methanone], the IC50 in experiment [1] is 72.3 µM; in experiment [2] it was 55.8 µM; in experiment [3], less than 0.5 µM.

As for `CCCCCc1cc2c(c(O)c1C(=O)Nc1ccccc1)C=CC(C)(CCC=C(C)C)O2` (stereo not drawn) [Compound 4b, 5-hydroxy-2-methyl-2-(4-methylpent-3-en-1-yl)-7-pentyl-N-phenyl-2H-chromene-6-carboxamide], the half-maximal inhibitory concentration (IC50) is 94.6 µM in experiment [1], 176 µM in experiment [2] and 0.4 µM in experiment [3].

Take `CCCCCc1cc2c(c(O)c1C(=O)NC1CCCC1)C=CC(C)(CCC=C(C)C)O2` (stereo not drawn) [Compound 4e, N-cyclopentyl-5-hydroxy-2-methyl-2-(4-methylpent-3-en-1-yl)-7-pentyl-2H-chromene-6-carboxamide]: the IC50 in experiment [1] and in experiment [3] was 0.4 µM each time.

As for `CCCCCc1cc2c(c(O)c1C(=O)NC1CCN(C)CC1)C=CC(C)(CCC=C(C)C)O2` (stereo not drawn) [Compound 4q, 5-hydroxy-2-methyl-2-(4-methylpent-3-en-1-yl)-N-(1-methylpiperidin-4-yl)-7-pentyl-2H-chromene-6-carboxamide], the concentration for half-maximal inhibition (IC50) is 6.2 µM in experiment [1] and 131 µM in experiment [2].

Regarding `CCCCCc1cc2c(c(O)c1C(=O)NCCc1ccc(O)cc1)C=CC(C)(CCC=C(C)C)O2` (stereo not drawn) [Compound 4x, 5-hydroxy-N-(4-hydroxyphenethyl)-2-methyl-2-(4-methylpent-3-en-1-yl)-7-pentyl-2H-chromene-6-carboxamide], the IC50 in experiment [1] stood at 2.6 µM; in experiment [3] it was 0.8 µM.

With `CCCCCc1cc2c(c(O)c1C(=O)NN1CCCCC1)C=CC(C)(CCC=C(C)C)O2` (stereo not drawn) [Compound 4z, 5-hydroxy-2-methyl-2-(4-methylpent-3-en-1-yl)-7-pentyl-N-(piperidin-1-yl)-2H-chromene-6-carboxamide], the IC50 in experiment [1] turned out to be 1.3 µM; in experiment [2], 156 µM; in experiment [3] it was 29 µM.

The values are drawn from US20250066343A1, “NOVEL CANNAB[…] DERIVATIVE, PREPARATION METHOD THEREFOR, AND COMPOSITION COMPRISING SAME FOR IMPROVING COGNITIVE FUNCTION” (priority 2021, published 2025).
